Measured values from PubChem BioAssay AID1259407 (Chemical Carcinogenesis Research Information System (CCRIS), 2018).
The source made the active and inactive calls. The rule behind the calls is not given here.

Test system: CCRIS mutagenicity, Ames/micronucleus/aberration tests
Assay: CCRIS mutagenicity studies
[1] = Test System: AMES SALMONELLA TYPHIMURIUM, Strain/Indicator: TA100, Metabolic Activation: NONE, Method: PREINCUBATION
[2] = Test System: AMES SALMONELLA TYPHIMURIUM, Strain/Indicator: TA100, Metabolic Activation: NONE, Method: STANDARD PLATE
[3] = Test System: AMES SALMONELLA TYPHIMURIUM, Strain/Indicator: TA1535, Metabolic Activation: NONE, Method: STANDARD PLATE
[4] = Test System: AMES SALMONELLA TYPHIMURIUM, Strain/Indicator: TA98, Metabolic Activation: NONE, Method: PREINCUBATION
[5] = Test System: AMES SALMONELLA TYPHIMURIUM, Strain/Indicator: TA98, Metabolic Activation: NONE, Method: STANDARD PLATE
[6] = Test System: AMES SALMONELLA TYPHIMURIUM, Strain/Indicator: TA1537, Metabolic Activation: NONE, Method: STANDARD PLATE
[7] = Test System: MOUSE LYMPHOMA, Strain/Indicator: L5178Y (TK+/TK-), Metabolic Activation: NONE, Method: SUSPENSION/PLATE
[8] = Test System: AMES SALMONELLA TYPHIMURIUM, Strain/Indicator: TA98, Metabolic Activation: RAT, LIVER, S-9, AROCLOR 1254, Method: STANDARD PLATE
[9] = Test System: AMES SALMONELLA TYPHIMURIUM, Strain/Indicator: TA100, Metabolic Activation: RAT, LIVER, S-9, AROCLOR 1254, Method: STANDARD PLATE

C=COc1ccc([N+](=O)[O-])cc1
mutagenic call (Test System: AMES SALMONELLA TYPHIMURIUM, Strain/Indicator: TA100(NR), Metabolic Activation: MOUSE, LIVER, S-13, Method: STANDARD PLATE): active; positive
mutagenic call (Test System: AMES SALMONELLA TYPHIMURIUM, Strain/Indicator: TA100(NR), Metabolic Activation: NONE, Method: PREINCUBATION): inactive; negative
mutagenic call (Test System: AMES SALMONELLA TYPHIMURIUM, Strain/Indicator: TA100(NR), Metabolic Activation: NONE, Method: STANDARD PLATE): inactive; negative
mutagenic call (Test System: AMES SALMONELLA TYPHIMURIUM, Strain/Indicator: TA100(NR), Metabolic Activation: RAT, LIVER, S-9, PCB, Method: PREINCUBATION): active; positive
mutagenic call (Test System: AMES SALMONELLA TYPHIMURIUM, Strain/Indicator: TA100, Metabolic Activation: MOUSE, LIVER, S-13, Method: STANDARD PLATE): active; positive
mutagenic call [1]: active; positive
mutagenic call [2]: active; positive
mutagenic call (Test System: AMES SALMONELLA TYPHIMURIUM, Strain/Indicator: TA100, Metabolic Activation: RAT, LIVER, S-9, PCB, Method: PREINCUBATION): active; positive
mutagenic call (Test System: AMES SALMONELLA TYPHIMURIUM, Strain/Indicator: TA1535, Metabolic Activation: MOUSE, LIVER, S-13, Method: STANDARD PLATE): active; positive
mutagenic call [3]: inactive; negative

CNc1c(C)cc2ncccc2c1N
mutagenic call [4]: inactive; negative
mutagenic call (Test System: AMES SALMONELLA TYPHIMURIUM, Strain/Indicator: TA98, Metabolic Activation: RAT, LIVER, S-9, AROCLOR 1254, Method: PREINCUBATION): inactive; negative
mutagenic call [1]: inactive; negative
mutagenic call (Test System: AMES SALMONELLA TYPHIMURIUM, Strain/Indicator: TA100, Metabolic Activation: RAT, LIVER, S-9, AROCLOR 1254, Method: PREINCUBATION): inactive; negative

C[C@H]1CCC[C@H](O)CCCCCc2cc(O)cc(O)c2C(=O)O1
mutagenic call [5]: inactive; negative
mutagenic call (Test System: AMES SALMONELLA TYPHIMURIUM, Strain/Indicator: TA98, Metabolic Activation: RAT, LIVER, S-9, Method: STANDARD PLATE): inactive; negative
mutagenic call [2]: inactive; negative; toxicity at 1000 ug/plate
mutagenic call (Test System: AMES SALMONELLA TYPHIMURIUM, Strain/Indicator: TA100, Metabolic Activation: RAT, LIVER, S-9, Method: STANDARD PLATE): inactive; negative
mutagenic call [3]: inactive; negative
mutagenic call (Test System: AMES SALMONELLA TYPHIMURIUM, Strain/Indicator: TA1535, Metabolic Activation: RAT, LIVER, S-9, Method: STANDARD PLATE): inactive; negative
mutagenic call [6]: inactive; negative; toxicity at 1000 ug/plate
mutagenic call (Test System: AMES SALMONELLA TYPHIMURIUM, Strain/Indicator: TA1537, Metabolic Activation: RAT, LIVER, S-9, Method: STANDARD PLATE): inactive; negative; toxicity at 1000 ug/plate
mutagenic call (Test System: AMES SALMONELLA TYPHIMURIUM, Strain/Indicator: TA1538, Metabolic Activation: NONE, Method: STANDARD PLATE): inactive; negative
mutagenic call (Test System: AMES SALMONELLA TYPHIMURIUM, Strain/Indicator: TA1538, Metabolic Activation: RAT, LIVER, S-9, Method: STANDARD PLATE): inactive; negative; toxicity at 1000 ug/plate

Nc1c(S(=O)(=O)O)cc(Nc2cccc(S(=O)(=O)CCOS(=O)(=O)O)c2)c2c1C(=O)c1ccccc1C2=O
mutagenic call [7]: active; positive

O=CN(O)c1ccc(Cl)c(Cl)c1
mutagenic call (Test System: AMES SALMONELLA TYPHIMURIUM, Strain/Indicator: TA97, Metabolic Activation: NONE, Method: STANDARD PLATE): inactive; negative
mutagenic call (Test System: AMES SALMONELLA TYPHIMURIUM, Strain/Indicator: TA97, Metabolic Activation: RAT, LIVER, S-9, AROCLOR 1254, Method: STANDARD PLATE): inactive; negative
mutagenic call [5]: inactive; negative
mutagenic call [8]: inactive; negative
mutagenic call [2]: inactive; negative
mutagenic call [9]: inactive; negative
mutagenic call (Test System: AMES SALMONELLA TYPHIMURIUM, Strain/Indicator: TA104, Metabolic Activation: NONE, Method: STANDARD PLATE): inactive; negative
mutagenic call (Test System: AMES SALMONELLA TYPHIMURIUM, Strain/Indicator: TA104, Metabolic Activation: RAT, LIVER, S-9, AROCLOR 1254, Method: STANDARD PLATE): inactive; negative

COc1ccc(N)c(C)c1
mutagenic call (Test System: AMES SALMONELLA TYPHIMURIUM, Strain/Indicator: TA98, Metabolic Activation: HAMSTER, LIVER, S-9, AROCLOR 1254 (30%), Method: PREINCUBATION): inactive; negative
mutagenic call [4]: inactive; negative
mutagenic call (Test System: AMES SALMONELLA TYPHIMURIUM, Strain/Indicator: TA98, Metabolic Activation: RAT, LIVER, S-9, AROCLOR 1254 (30%), Method: PREINCUBATION): inactive; negative
mutagenic call (Test System: AMES SALMONELLA TYPHIMURIUM, Strain/Indicator: TA100, Metabolic Activation: HAMSTER, LIVER, S-9, AROCLOR 1254 (30%), Method: PREINCUBATION): active; positive
mutagenic call [1]: inactive; negative
mutagenic call (Test System: AMES SALMONELLA TYPHIMURIUM, Strain/Indicator: TA100, Metabolic Activation: RAT, LIVER, S-9, AROCLOR 1254 (30%), Method: PREINCUBATION): inactive; negative
mutagenic call (Test System: E. COLI, Strain/Indicator: WP2 UVRA, Metabolic Activation: HAMSTER, LIVER, S-9, AROCLOR 1254, Method: STANDARD PLATE): inactive; negative
mutagenic call (Test System: E. COLI, Strain/Indicator: WP2 UVRA, Metabolic Activation: HAMSTER, LIVER, S-9, Method: STANDARD PLATE): inactive; negative
mutagenic call (Test System: E. COLI, Strain/Indicator: WP2 UVRA, Metabolic Activation: MOUSE, LIVER, S-9, AROCLOR 1254, Method: STANDARD PLATE): inactive; negative
mutagenic call (Test System: E. COLI, Strain/Indicator: WP2 UVRA, Metabolic Activation: MOUSE, LIVER, S-9, Method: STANDARD PLATE): inactive; negative
mutagenic call (Test System: E. COLI, Strain/Indicator: WP2 UVRA, Metabolic Activation: NONE, Method: STANDARD PLATE): inactive; negative
mutagenic call (Test System: E. COLI, Strain/Indicator: WP2 UVRA, Metabolic Activation: RAT, LIVER, S-9, AROCLOR 1254, Method: STANDARD PLATE): inactive; negative
mutagenic call (Test System: E. COLI, Strain/Indicator: WP2 UVRA, Metabolic Activation: RAT, LIVER, S-9, Method: STANDARD PLATE): inactive; negative

CC(=O)OCCCCONC(=O)c1ccccc1
mutagenic call [5]: active; positive
mutagenic call [2]: active; positive
mutagenic call (Test System: AMES SALMONELLA TYPHIMURIUM, Strain/Indicator: TA100, Metabolic Activation: RAT,S-9, AROCLOR, Method: STANDARD PLATE): active; positive

COc1cc(Nc2c3ccccc3nc3ccccc23)ccc1NS(C)(=O)=O
mutagenic call [7]: active; positive

O=C(O)c1cc(I)cc2cccnc12
mutagenic call [5]: inactive; negative
mutagenic call [8]: inactive; negative
mutagenic call [2]: inactive; negative
mutagenic call [9]: inactive; negative
mutagenic call [3]: inactive; negative
mutagenic call (Test System: AMES SALMONELLA TYPHIMURIUM, Strain/Indicator: TA1535, Metabolic Activation: RAT, LIVER, S-9, AROCLOR 1254, Method: STANDARD PLATE): inactive; negative
mutagenic call [6]: inactive; negative
mutagenic call (Test System: AMES SALMONELLA TYPHIMURIUM, Strain/Indicator: TA1537, Metabolic Activation: RAT, LIVER, S-9, AROCLOR 1254, Method: STANDARD PLATE): inactive; negative

COC(=O)C12OC1(C)C(C(C)C)OC2=O (stereo not given)
mutagenic call (Test System: AMES SALMONELLA TYPHIMURIUM, Strain/Indicator: TA98, Metabolic Activation: NONE, Method: DISK ASSAY): active; positive
mutagenic call [5]: active; positive
mutagenic call (Test System: AMES SALMONELLA TYPHIMURIUM, Strain/Indicator: TA98, Metabolic Activation: RAT, LIVER, S-9, AROCLOR 1254, Method: DISK ASSAY): active; positive
mutagenic call [8]: active; positive
mutagenic call [2]: inactive; negative
mutagenic call [9]: active; positive

CN(C)C(=N)N=C(N)N
mutagenic call (End Point: In vivo micronucleus, Test System: Bone marrow erythrocytes, Species: Mouse, Strain/Sex: Swiss albino/Male, Route: Oral): inactive; negative
